IC50 and CC50 data for 21 compounds are collected here from patent US20230406831A1, “COMPOUNDS AND METHODS OF INHIBITING BACTERIAL CHAPERONIN SYSTEMS” (THE TRUSTEES OF INDIANA UNIVERSITY, priority 2020, published 2023).

Read-outs that look alike come from different tables or passages of the source.

One data set has as its target T1, HSP60/10 (Homo sapiens, UniProt P10809).
T1 construct: octa-Histidine (His8) tag, TEV-cleavable (N, cleaved yes); made in house; host or cells: HSP60 in Rosetta 2 (DE3) E. coli; HSP10 in Rosetta 2 (DE3) pLysS
Description: HSP60/10-mediated dMDH refolding assay. It counts as biochemical. The note with it: 37° C., 1 mM ATP, read-out: Biochemical Assay IC50 HSP60/10-dMDH Refolding. The protocol: Evaluation of compounds ability to inhibit GroEL/ES and HSP60/10-mediated dMDH refolding assays.
Reagent preparation: For these assays, four primary reagent stocks were prepared: 1) GroEL/ES-dMDH or HSP60/10-dMDH binary complex stock; 2) ATP initiation stock; 3) EDTA quench stock; 4) MDH enzymatic assay stock. Denatured MDH (dMDH) was prepared by 2-fold dilution of MDH (5 mg/ml, soluble pig heart MDH from Roche, product #10127248001) with denaturant buffer (7 M guanidine-HCl, 200 mM Tris, pH 7.4, and 50 mM DTT). MDH was completely denatured by incubating at room temperature for 45 min. The binary complex solutions were prepared by slowly adding the dMDH stock to a stirring stock with GroEL (or HSP60) in folding buffer (50 mM Tris-HCl, pH 7.4, 50 mM KCl, 10 mM MglC2, and 1 mM DTT), followed by addition of GroES (or HSP10). The binary complex stocks were prepared immediately prior to dispensing into the assay plates and had final protein concentrations of 83.3 nM GroEL (Mr 800 kDa) or HSP60 (Mr 400 kDa), 100 nM GroES or HSP10 (Mr 70 kDa), and 20 nM dMDH in folding buffer. For the ATP initiation stock, ATP solid was diluted into folding buffer to a final concentration of 2.5 mM. Quench solution contained 600 mM EDTA (pH 8.0). The MDH enzymatic assay stock consisted of 20 mM sodium mesoxalate and 2.4 mM NADH in reaction buffer (50 mM Tris-HCl, pH 7.4, 50 mM KC1, and 1 mM DTT).
Assay Protocol: First, 30 μL aliquots of the GroEL/ES-dMDH or HSP60/10-dMDH binary complex stocks were dispensed into clear, 384-well polystyrene plates. Next, 0.5 μL of the compound stocks (10 mM to 4.6 μM, 3-fold dilutions series in DMSO) were added by pin-transfer (V&P Scientific). The chaperonin-mediated refolding cycles were initiated by addition of 20 IA of ATP stock (reagent concentrations during refolding cycle: 50 nM GroEL or HSP60, 60 nM GroES or HSP10, 12 nM dMDH, 1 mM ATP, and compounds of 100 μM to 46 nM, 3-fold dilution series). The refolding reactions were incubated at 37° C. The incubation time was determined from refolding time-course control experiments until they reached ˜90% completion of refolding cycle — generally ˜20-40 min for GroEL/ES, and ˜40-60 min for HSP60/10). Next, the assay was quenched by addition of 10 μL of the EDTA to final concentration of 100 mM. […] A340 nm measurements were recorded at 0.5 minutes (start point) and at successive time points until the amount of NADH consumed reached ˜90% (end point, generally between 20-35 minutes). The differences between the start and end point A340 values were used to calculate the % inhibition of the GroEL/ES or HSP60/10 machinery by the compounds. IC50 values for the test compounds were obtained by plotting the % inhibition results in GraphPad Prism 6 and analyzing by non-linear regression using the log (inhibitor) vs. response (variable slope) equation. Results presented represent the averages of IC50 values obtained from at least quadriplicate (duplicate of duplicate) replicates. For results, see Tables 1, 2, and 3.

A short description of data set [1]: HEK 293 kidney cell viability / cytotoxicity assay (Alamar Blue). It counts as cell-based. The note with it: human. As to the method: Evaluating compound effects on kidney cell viability.
HEK 293 cells were maintained in MEM medium (Corning Cellgro, 10-009 CV) supplemented with 10% FBS (Sigma, F2242). […] Cells at 80% confluence were harvested and diluted in growth medium, then 45 μL of the HEK 293 cells (1,500 cells/well) were dispensed per well, and plates were sealed with “Breathe Easy” oxygen permeable membranes (Diversified Biotech) and incubated at 37° C., 5% CO2, for 24 h. […] Plates were sealed with “Breathe Easy” oxygen permeable membranes and incubated for an additional 48 h at 37° C. and 5% CO2. The Alamar Blue reporter reagents were then added to a final concentration of 10%, the plates incubated at 37° C. and 5% CO2, and sample fluorescence (535 nm excitation, 590 nm emission) was read using a Molecular Devices FlexStation II 384-well plate reader (readings taken between 4-24 h of incubation so as to achieve signals in the 30-60% range for conversion of resazurin to resorufin). Cell viability was calculated as per vendor instructions (Thermo Fisher—Alamar Blue cell viability assay manual).

Setting [2] is: Table 2, 48 h incubation, Alamar Blue, read-out: HEK 293 Kidney Cell Viability CC50.
The mark [3] stands for this setting: HEK 293 kidney cells, Table 2, 48 h incubation, Alamar Blue, read-out: HEK 293 Kidney Cell Viability CC50.

T1 sequence (P10809 27-573): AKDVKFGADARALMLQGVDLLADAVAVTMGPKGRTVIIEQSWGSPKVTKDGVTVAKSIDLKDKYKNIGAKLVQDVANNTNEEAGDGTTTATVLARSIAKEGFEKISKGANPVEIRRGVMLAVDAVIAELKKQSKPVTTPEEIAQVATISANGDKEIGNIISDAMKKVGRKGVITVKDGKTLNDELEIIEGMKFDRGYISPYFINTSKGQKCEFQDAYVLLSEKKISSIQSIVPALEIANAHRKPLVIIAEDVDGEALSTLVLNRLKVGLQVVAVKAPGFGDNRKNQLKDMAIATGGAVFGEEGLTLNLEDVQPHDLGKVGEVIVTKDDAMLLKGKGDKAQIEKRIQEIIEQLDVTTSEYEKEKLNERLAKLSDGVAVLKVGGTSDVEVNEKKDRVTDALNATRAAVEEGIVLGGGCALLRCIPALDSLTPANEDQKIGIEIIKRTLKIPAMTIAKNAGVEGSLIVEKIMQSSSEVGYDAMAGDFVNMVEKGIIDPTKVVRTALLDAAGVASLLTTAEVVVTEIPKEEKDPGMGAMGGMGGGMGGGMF

Turning to `Cc1cc(C(C#N)c2ccc(Cl)cc2)c(Cl)cc1NC(=O)c1cc(I)cc(I)c1O` (stereo not shown) [Closantel, reference compound], the IC50 on HSP60/10 (Table 1) turned out to be 3 µM. This compound displayed a CC50 at 48 h in data set [1] of 79 µM.

Consider `O=C(Nc1ccc(Sc2nc3ccccc3s2)c(Cl)c1)c1cc(Br)cc(Br)c1O` [Compound 1, reference compound], for which the IC50 on HSP60/10 (Table 1) turned out to be 3.7 µM. Further, the CC50 at 48 h in data set [1] (HEK 293 kidney cells, Table 1, 48 h incubation, Alamar Blue, read-out: HEK 293 Kidney Cell Viability CC50) came out at 73 µM.

`COc1c(Br)cc(Br)cc1C(=O)Nc1cc(Cl)c(C(C#N)c2ccc(Cl)cc2)cc1C` (stereo not shown) [Compound 45, 3,5-dibromo-N-(5-chloro-4-((4-chlorophenyl)(cyano)methyl)-2-methylphenyl)-2-methoxybenzamide]: on HSP60/10 (Table 2), the IC50 was greater than 100 µM. In data set [1] (setting [2]), the CC50 at 48 h was found to be 66 µM.

For the compound `Cc1cc(C(C#N)c2ccc(Cl)cc2)c(Cl)cc1NC(=O)c1cc(Br)cc(Br)c1O` (stereo not shown) [Compound 46, 3,5-dibromo-N-(5-chloro-4-((4-chlorophenyl)(cyano)methyl)-2-methylphenyl)-2-hydroxybenzamide], the IC50 at HSP60/10 (Table 2) came to 2.4 µM. Further, the CC50 at 48 h in data set [1] (setting [2]) came to 58 µM.

For `COc1c(Br)cccc1C(=O)Nc1cc(Cl)c(C(C#N)c2ccc(Cl)cc2)cc1C` (stereo not shown) [Compound 47, 3-bromo-N-(5-chloro-4-((4-chlorophenyl)(cyano)methyl)-2-methylphenyl)-2-methoxybenzamide], the IC50 at HSP60/10 (Table 2) is greater than 100 µM. Further, the CC50 at 48 h in data set [1] (setting [2]) is greater than 100 µM.

Take `Cc1cc(C(C#N)c2ccc(Cl)cc2)c(Cl)cc1NC(=O)c1cccc(Br)c1O` (stereo not shown) [Compound 48, 3-bromo-N-(5-chloro-4-((4-chlorophenyl)(cyano)methyl)-2-methylphenyl)-2-hydroxybenzamide]: the IC50 on HSP60/10 (Table 2) stood at 7.7 µM. Also, the CC50 at 48 h in data set [1] (setting [2]) was found to be 43 µM.

Consider `COc1ccc(Br)cc1C(=O)Nc1cc(Cl)c(C(C#N)c2ccc(Cl)cc2)cc1C` (stereo not shown) [Compound 49, 5-bromo-N-(5-chloro-4-((4-chlorophenyl)(cyano)methyl)-2-methylphenyl)-2-methoxybenzamide], for which the IC50 on HSP60/10 (Table 2) is greater than 100 µM. In addition, the CC50 at 48 h in data set [1] (setting [2]) is greater than 100 µM.

Turning to `Cc1cc(C(C#N)c2ccc(Cl)cc2)c(Cl)cc1NC(=O)c1cc(Br)ccc1O` (stereo not shown) [Compound 50, 5-bromo-N-(5-chloro-4-((4-chlorophenyl)(cyano)methyl)-2-methylphenyl)-2-hydroxybenzamide], the IC50 at HSP60/10 (Table 2) came to 20 µM. Besides, the CC50 at 48 h in data set [1] (setting [2]) worked out at 3.4 µM.

In the case of `COc1c(Cl)cc(Cl)cc1C(=O)Nc1cc(Cl)c(C(C#N)c2ccc(Cl)cc2)cc1C` (stereo not shown) [Compound 51, 3,5-dichloro-N-(5-chloro-4-((4-chlorophenyl)(cyano)methyl)-2-methylphenyl)-2-methoxybenzamide], the IC50 on HSP60/10 (Table 2) was determined as 86 µM. The half-maximal cytotoxic concentration (CC50) at 48 h in data set [1] (setting [2]) stood at 83 µM.

`Cc1cc(C(C#N)c2ccc(Cl)cc2)c(Cl)cc1NC(=O)c1cc(Cl)cc(Cl)c1O` (stereo not shown) [Compound 52, 3,5-dichloro-N-(5-chloro-4-((4-chlorophenyl)(cyano)methyl)-2-methylphenyl)-2-hydroxybenzamide]: the IC50 at HSP60/10 (Table 2) came to 5.2 µM. Further, the CC50 at 48 h in data set [1] (setting [3]) worked out at 44 µM.

For the compound `COc1c(Cl)cccc1C(=O)Nc1cc(Cl)c(C(C#N)c2ccc(Cl)cc2)cc1C` (stereo not shown) [Compound 53, 3-chloro-N-(5-chloro-4-((4-chlorophenyl)(cyano)methyl)-2-methylphenyl)-2-methoxybenzamide], the IC50 on HSP60/10 (Table 2) was greater than 100 µM. In data set [1] (setting [3]), the CC50 at 48 h was greater than 100 µM.

`Cc1cc(C(C#N)c2ccc(Cl)cc2)c(Cl)cc1NC(=O)c1cccc(Cl)c1O` (stereo not shown) [Compound 54, 3-chloro-N-(5-chloro-4-((4-chlorophenyl)(cyano)methyl)-2-methylphenyl)-2-hydroxybenzamide]: on HSP60/10 (Table 2), the IC50 is 6.4 µM. In addition, the CC50 at 48 h in data set [1] (setting [2]) was found to be 88 µM.

On to `COc1cc(Cl)ccc1C(=O)Nc1cc(Cl)c(C(C#N)c2ccc(Cl)cc2)cc1C` (stereo not shown) [Compound 55, 4-chloro-N-(5-chloro-4-((4-chlorophenyl)(cyano)methyl)-2-methylphenyl)-2-methoxybenzamide], for which the IC50 at HSP60/10 (Table 2) is greater than 100 µM. The CC50 at 48 h in data set [1] (setting [2]) is greater than 100 µM.

Regarding `Cc1cc(C(C#N)c2ccc(Cl)cc2)c(Cl)cc1NC(=O)c1ccc(Cl)cc1O` (stereo not shown) [Compound 56, 4-chloro-N-(5-chloro-4-((4-chlorophenyl)(cyano)methyl)-2-methylphenyl)-2-hydroxybenzamide], at HSP60/10 (Table 2), the IC50 stood at 17 µM. Also, the CC50 at 48 h in data set [1] (setting [2]) came to 16 µM.

Consider `COc1ccc(Cl)cc1C(=O)Nc1cc(Cl)c(C(C#N)c2ccc(Cl)cc2)cc1C` (stereo not shown) [Compound 57, 5-chloro-N-(5-chloro-4-((4-chlorophenyl)(cyano)methyl)-2-methylphenyl)-2-methoxybenzamide], for which the IC50 on HSP60/10 (Table 2) and at HSP60/10 (Table 3) was greater than 100 µM throughout. For the same compound, in data set [1] (setting [2]), the CC50 at 48 h was determined as 28 µM.

For the compound `Cc1cc(C(C#N)c2ccc(Cl)cc2)c(Cl)cc1NC(=O)c1cc(Cl)ccc1O` (stereo not shown) [Compound 58, 5-chloro-N-(5-chloro-4-((4-chlorophenyl)(cyano)methyl)-2-methylphenyl)-2-hydroxybenzamide], the IC50 at HSP60/10 (Table 2) stood at 40 µM. Moreover, in data set [1] (setting [2]), the CC50 at 48 h came out at 11 µM.

`COc1ccc(C)cc1C(=O)Nc1cc(Cl)c(C(C#N)c2ccc(Cl)cc2)cc1C` (stereo not shown) [Compound 59, N-(5-chloro-4-((4-chlorophenyl)(cyano)methyl)-2-methylphenyl)-2-methoxy-5-methylbenzamide]: the IC50 on HSP60/10 (Table 2) was greater than 100 µM. For the same compound, the CC50 at 48 h in data set [1] (setting [2]) amounted to 32 µM.

Regarding `Cc1ccc(O)c(C(=O)Nc2cc(Cl)c(C(C#N)c3ccc(Cl)cc3)cc2C)c1` (stereo not shown) [Compound 60, N-(5-chloro-4-((4-chlorophenyl)(cyano)methyl)-2-methylphenyl)-2-hydroxy-5-methylbenzamide], at HSP60/10 (Table 2), the IC50 was found to be 85 µM. In data set [1] (setting [2]), the CC50 at 48 h turned out to be 40 µM.

Consider `COc1ccccc1C(=O)Nc1cc(Cl)c(C(C#N)c2ccc(Cl)cc2)cc1C` (stereo not shown) [Compound 61, N-(5-chloro-4-((4-chlorophenyl)(cyano)methyl)-2-methylphenyl)-2-methoxybenzamide], for which the IC50 at HSP60/10 (Table 2) is greater than 100 µM. Also, in data set [1] (setting [3]), the CC50 at 48 h is greater than 100 µM.

On to `COc1cccc(C(=O)Nc2cc(Cl)c(C(C#N)c3ccc(Cl)cc3)cc2C)c1` (stereo not shown) [Compound 62, N-(5-chloro-4-((4-chlorophenyl)(cyano)methyl)-2-methylphenyl)-3-methoxybenzamide], for which the IC50 on HSP60/10 (Table 2) is greater than 100 µM. Besides, the CC50 at 48 h in data set [1] (setting [3]) worked out at 50 µM.

`COc1ccc(C(=O)Nc2cc(Cl)c(C(C#N)c3ccc(Cl)cc3)cc2C)cc1` (stereo not shown) [Compound 63, N-(5-chloro-4-((4-chlorophenyl)(cyano)methyl)-2-methylphenyl)-4-methoxybenzamide]: the IC50 on HSP60/10 (Table 2) was greater than 100 µM. The CC50 at 48 h in data set [1] (setting [3]) was greater than 100 µM.

One may read the CC50 as the concentration giving 50% cytotoxicity.
